Measured values taken from ChEMBL document CHEMBL4476874, “Compounds for the modulation of myc activity” (2018).

How the values were obtained:
[1] = target: Myc proto-oncogene protein (Homo sapiens, UniProt P01106); experiment: Inhibition of human c-Myc assessed as reduction in c-Myc/Max/Ebox DNA complex formation using pre-formed complex of c-Myc and biotinylated DNA containing single Ebox-sequence followed by compound addition and further addition of his6-tagged c-Max and incubated for 2 hrs by AlphaScreen assay
NCI-H2171 = experiment: Antiproliferative activity against human NCI-H2171 cells after 72 hrs by ATPlite assay; format: functional, cell-based; conditions: NCI-H2171, 72 h

Sequence of Myc proto-oncogene protein (P01106 whole entry): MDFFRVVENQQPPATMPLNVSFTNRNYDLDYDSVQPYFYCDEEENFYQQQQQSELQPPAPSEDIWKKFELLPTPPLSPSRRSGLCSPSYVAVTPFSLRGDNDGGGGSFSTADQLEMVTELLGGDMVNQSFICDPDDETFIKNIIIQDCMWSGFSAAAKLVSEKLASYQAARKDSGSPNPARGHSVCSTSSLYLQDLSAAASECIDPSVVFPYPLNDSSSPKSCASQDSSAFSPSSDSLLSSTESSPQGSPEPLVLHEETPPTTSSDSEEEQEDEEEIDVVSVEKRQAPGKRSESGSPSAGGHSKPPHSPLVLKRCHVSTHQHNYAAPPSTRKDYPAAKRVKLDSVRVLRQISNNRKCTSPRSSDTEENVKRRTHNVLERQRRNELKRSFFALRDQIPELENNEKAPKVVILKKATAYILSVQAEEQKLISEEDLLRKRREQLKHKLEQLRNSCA

SMILES | IC50 [1] | IC50 (NCI-H2171)
COCCNCCC(=O)Nc1sc2c(c1-c1nc3cc(-c4cncc(C)c4)ccc3s1)CCNC2 | 300 to 1000 nM | < 300 nM
COCCNCCC(=O)Nc1sc2c(c1-c1nc3cc(-c4c[nH]nc4C)ccc3s1)CCNC2 | 300 to 1000 nM | 300 to 1000 nM
CC(C)NCCC(=O)Nc1sc2c(c1-c1nc3cc(O)ccc3s1)CCNC2 | < 300 nM | 300 to 1000 nM
COCCNCCC(=O)Nc1sc2c(c1-c1nc3ccccc3s1)CCN(C(C)C)C2 | 300 to 1000 nM | 1000 to 10000 nM
COCCNCCC(=O)Nc1sc2c(c1-c1nc3cc(-c4cccc(S(C)(=O)=O)c4)ccc3s1)CCNC2 | 300 to 1000 nM | < 300 nM
Cc1nn(C)cc1-c1ccc2sc(-c3c(NC(=O)CCNC(C)C)sc4c3CCNC4)nc2c1 | < 300 nM | 1000 to 10000 nM
COCCNCCC(=O)Nc1sc2c(c1-c1nc3c(N4CCOCC4)cccc3s1)CCNC2 | > 10000 nM | 300 to 1000 nM
COCCNCCC(=O)Nc1sc2c(c1-c1nc3cc(-c4ccc(OC)nc4)ccc3s1)CCNC2 | 1000 to 10000 nM | < 300 nM
COCCNCCC(=O)Nc1sc2c(c1-c1nc3cc(-c4cnn(C)c4C)ccc3s1)CCNC2 | 300 to 1000 nM | < 300 nM
COCCNCCC(=O)Nc1sc2c(c1-c1nc3c(NS(C)(=O)=O)cccc3s1)CCNC2 | 1000 to 10000 nM | < 300 nM
COCCNCCC(=O)Nc1sc2c(c1-c1nc3cc(-c4cccc(NS(C)(=O)=O)c4)ccc3s1)CCNC2 | 1000 to 10000 nM | < 300 nM
NCCC(=O)Nc1sc2c(c1-c1nc3ccccc3s1)CCNC2 | < 300 nM | < 300 nM
CC(C)NCCC(=O)Nc1sc2c(c1-c1nc3cc(C4=CCN(S(C)(=O)=O)CC4)ccc3s1)CCNC2 | < 300 nM | 300 to 1000 nM
CC(C)NCCC(=O)Nc1sc2c(c1-c1nc3cc(S(C)(=O)=O)ccc3s1)CCNC2 | < 300 nM | > 10000 nM
COCCNCCC(=O)Nc1sc2c(c1-c1nc3ccc(-c4cccc(C(=O)N(C)C)c4)cc3s1)CCNC2 | 300 to 1000 nM | < 300 nM
COCCNCCC(=O)Nc1sc2c(c1-c1nc3cc(-c4cnc(N5CCOCC5)nc4)ccc3s1)CCNC2 | 300 to 1000 nM | < 300 nM
COCCNCCC(=O)Nc1sc2c(c1-c1nc3cc(-c4c(C)nn(C)c4C)ccc3s1)CCNC2 | 1000 to 10000 nM | < 300 nM
COCCNCCC(=O)Nc1sc2c(c1-c1nc3cc(-c4ccnc(C)c4)ccc3s1)CCNC2 | 300 to 1000 nM | < 300 nM
COCCNCCC(=O)Nc1sc2c(c1-c1nc3cc(-c4ccnn4C)ccc3s1)CCNC2 | 300 to 1000 nM | < 300 nM
COCCNCCC(=O)Nc1sc2c(c1-c1nc3cc(-c4ccnc(C(F)(F)F)c4)ccc3s1)CCNC2 | 300 to 1000 nM | < 300 nM
CC(=O)Nc1cccc2sc(-c3c(NC(=O)CCNC(C)C)sc4c3CCNC4)nc12 | 300 to 1000 nM | < 300 nM
O=C(CCN1CCOCC1)Nc1sc2c(c1-c1nc3ccccc3s1)CCNC2 | 1000 to 10000 nM | 300 to 1000 nM
CC(C)NCCC(=O)Nc1sc2c(c1-c1nc3cc(N4CCS(=O)(=O)CC4)ccc3s1)CCNC2 | 300 to 1000 nM | < 300 nM
Cc1noc(C)c1-c1ccc2sc(-c3c(NC(=O)CCNC(C)C)sc4c3CCNC4)nc2c1 | 1000 to 10000 nM | 300 to 1000 nM
COCCNCCC(=O)Nc1sc2c(c1-c1nc3ccc(-c4ccncc4C)cc3s1)CCNC2 | > 10000 nM | < 300 nM
CSc1ccc2sc(-c3c(NC(=O)CCNC(C)C)sc4c3CCNC4)nc2c1 | 300 to 1000 nM | < 300 nM
Cc1cn(-c2ccc3sc(-c4c(NC(=O)CCNC(C)C)sc5c4CCNC5)nc3c2)cn1 | < 300 nM | < 300 nM
COCCNCCC(=O)Nc1sc2c(c1-c1nc3ccc(-c4ccnn4C)cc3s1)CCNC2 | 1000 to 10000 nM | < 300 nM
COCCNCCC(=O)Nc1sc2c(c1-c1nc3ccc(-c4ccc(F)nc4)cc3s1)CCNC2 | 300 to 1000 nM | < 300 nM
CC(C)NCCC(=O)Nc1sc2c(c1-c1nc3cc(S(=O)(=O)c4ccccc4)ccc3s1)CCNC2 | 300 to 1000 nM | < 300 nM
